The text below walks through data of patent publication US6204067A, “Methods of identifying modulators of the estrogen receptor” (Board of Trustees Operating Michigan State University, priority 1999, dated 2001).

Data set [1] deals with microsomes isolated from MCF-7/ADR cells. Briefly: In vitro acidification of MCF-7/ADR microsomes (acridine orange quenching). In kind it is biochemical. As to the method: Cells were grown in Minimal Essential. Medium supplemented with 10% Fetal Bovine Serum to confluence in 10 level Cell Factories (Nunc, Naperville, Ill.), trypsinized, washed 3× with cold PBS and lysed with a Dounce homogenizer (Pestle A) in 0.25 M sucrose, 20 mM HEPES (pH 7.4), 1 mM DTT, 1 mM EDTA, and 1× protease inhibitor mix (1 μg/ml leupeptin, 1 μ/ml pepstatin A, 1 μg/ml aprotinin, and 16 μM PMSF mixed to 100× before use). The homogenate was centrifuged twice for 10 minutes at 3000×g to remove unbroken cells and nuclei. The supernatant was layered over 20 ml of 0.5 M sucrose (20 mM HEPES (pH 7.4), 1 mM DTT, 1 mM EDTA, 1× protease inhibitor mix) and 1 ml of 2 M sucrose and centrifuged for 1 hour at 100,000 g (Beckman Ti60 Rotor). Microsomes are collected at the 0.5M and 2M interface.
To monitor acidification of the total microsomal fraction, the quenching of AO fluorescence was monitored essentially as described previously [Barasch et al., Nature 352:70-73 (1991)]. Acidic vesicles accumulate AO to high concentrations resulting in the self quenching of the dye and a decrease of the overall fluorescence. Fluorescence was measured on an SLM Aminco-Bowman series 2 luminescence spectrometer with λex =488 nm and λem =530 nm Microsomes (80 μg protein) were suspended in 2.5 ml vesicle buffer (125 mM KCl, 5 mM MgCl2, 20 mM HEPES (pH 7.4), 1 mM DTT, 1 mM EDTA, 2 mM NaN3), with 6 μM AO (5 mM stock in H2 O) in a cuvet. […] After equilibration for 30 minutes at 25° C. 1 mM Tris-ATP was added to begin acidification (100 mM stock, titrated to pH 7.4 with 1 M Tris-base before use). Twenty minutes later, 2.5 μM of nigericin (10 mM stock in EtOH) was added to dissipate any ΔpH formation.
Acridine orange (AO) was used as a probe for lumenal acidification. As vesicles acidify, they accumulate AO to self-quenching concentrations, and deplete the extra-vesicular free AO, resulting in a decrease in total fluorescence. Acidification was initiated by the addition of ATP to a purified microsomal fraction in the absence of cytosol (FIG. 1A, at t=300 sec). […] Nigericin, a K^+ /H^+ exchanger that rapidly dissipates pH gradients, was added at the end of each reaction (t=1500 seconds).

Data set [2] has as its system yeast vacuoles. Description: Vm of yeast vacuoles (Oxonol V). Type of data set: biochemical, S. cerevisiae. The conditions noted are these: 10 μM, KCl or K-gluconate buffer, 2.5 mM ATP.
Procedure: Oxonol V is a membrane permeable anionic fluorescent probe that accumulates into the inner leaflet of vesicles with positive Vm, resulting in quenching of fluorescence. Vacuoles were suspended in chloride or gluconate vesicle buffer with 1 μM Oxonol V. Fluorescence was measured with a λex =600 nm and λem =630 nm. After fluorescence has equilibrated, vacuoles were added and the fluorescence is allowed to re-equilibrate. Then, 1 mM Tris-ATP was added and the resulting positive Vm was manifested in fluorescence quenching.
The fluorescent dye Oxonal V was used to monitor Vm.
The Vm was monitored in either KCl or K-gluconate buffer (FIG. 3A).
In data set [3] the test system is E. coli inverted membrane vesicles. Briefly: Acidification of E. coli inverted membrane vesicles (acridine orange). In kind it is biochemical. As to conditions: 0.63 μM, 2 μM, 10 μM; similar dose dependence as mammalian and yeast vesicles. As to the method:
InV were prepared from the DH5α strain as described [Simon and Blobel, Cell 69:677-684 (1992)]. Acidification was measured using AO as described above.
Unlike mammalian or yeast vesicles, InV utilize the F0 F1 -ATPase for acidification and are composed of different types of lipids, including an abundance of cardiolipin and a lack of sterols.

How the values of data set [4] were obtained: The lumenal pH (pHL) of liposomes was assayed with pyranine, a fluorescent dye with a pKa~7.3 and a λex =405 nm in its acid form (-3 charge) and a λex =455 nm in its basic form (-4 charge). To prepare pyranine loaded liposomes, lipids (2 mg POPC, 1 mg cholesterol) supplied in chloroform suspension were dried in a round bottom flask under argon for 2 hours. The lipids were then resuspended in acidic or alkaline liposome buffer (300 mM KCl, 20 mM MES, 20 mM MOPS, 20 mM Tricine titrated with KOH to either pH 6.2 or pH 8.1) containing 0.5 mM pyranine. The suspension was incubated at room temperature overnight, then freeze-thawed 6×. Unilamellar liposomies were prepared by extrusion 3× through 2 stacked 100 nm Nucleopore (Corning/Costar Scientific, Acton, Mass.) polycarbonate filters in an Avestin (Vancouver, BC) extruder at 600 PSI.
The pyranine fluorescence was calibrated as a function of pH by diluting the liposomes with pH 6.2 into a weakly buffered solution of identical pH (300 mM KCl, 1 mM MES, 1 mM MOPS, 1 mM Tricine, pH 6.2), 1 μM nigericin to allow rapid equilibration with external pH and 5 mM DPX to quench external pyranine. The ratio of the fluorescence emission at λem =510 nm was monitored with dual excitation wavelengths of λex =405 nm and λex =455 nm. Sequential aliquots of 0.1 mM glycylglycine, pH 8.4 were added to increase pH (See FIG. 5). The fluorescence was measured after each addition and the pH was measured using a pH meter. […] The cahiration curve for the liposomes of lumenal pH 8.1 was generated identically except sequential aliquots of 0.1 mM K-MES pH 5.0 were added for titration and the curve was generated between pH 8.1 and pH 6.4.
To measure the rate of pH dissipation of liposomes with lumenal pH=6.2, the liposomes were diluted in weakly buffered solution of identical pH as described above, but with no nigericin. […] The external pH was shifted to pH 7.3 by addition of 5 mM glycylglycine pH 8.4 and the fluorescence ratio monitored. After 10 minutes, 1 μM nigericin was added to dissipate the remaining pH gradient. The pHL was calculated using the equation pH=x*log(λex =405 nm/[…])+c, were x and c are constants from the least square fit of the titration curve. To measure the rate of pH dissipation of liposomes with pHL =8.1, the identical procedure was followed except 5 mM K-MES pH 5.0 was added to shift the external pH to 6.9.
Liposomes were loaded with pyranine, a hydrophilic, non-permeable fluorescent pH indicator to assay proton permeability. […] Two steps were taken to ensure that only pHL was measured and to permit the discrimination between dissipation of pH gradient and the lysis or dye leakage from liposomes.

For data set [5] the following is noted: NMR in 10% Triton solution; cited from earlier work.

Each structure is given as a SMILES string. Entries after “also recorded” stand apart in the source; their conditions may differ. Some results are limits rather than exact numbers.

Regarding `CC/C(=C(\c1ccccc1)c1ccc(OCCN(C)C)cc1)c1ccccc1` [tamoxifen], the “time to almost complete dissipation of the pH gradient” value in data set [1] (added 10 minutes after ATP, 8 μM tamoxifen (FIG. 1B)) is not above 5 minutes. Also, in data set [1] (added 10 minutes after ATP, tamoxifen 8 μM, bafilomycin A1 100 nM), the “rate of dissipation of pre-existing pH gradient” value is reported as “rapidly reversed acidification”. Also, in data set [1] (pre-treated 30 minutes), the “concentration at which acidification was totally blocked” value stood at 8 µM and the “concentration at which inhibition of acidification was evident” value turned out to be 1 µM. Further, the “effect on Vm generated by the vATPase” value in data set [2] is “significantly decreased the Vm”. Further, the “effect on ATP-dependent acidification of InV” value in data set [3] was “inhibited acidification”. For the same compound, the “effect of addition on pHL without pre-existing pH gradient” value in data set [4] (pHL 6.2 = external pH, tamoxifen 2 μM, 8 μM, NH4Cl 5 mM) is given as “alkalinization of liposomes, followed by more rapid pH equilibration”. Moreover, the “effect on pH equilibration with chloride included” value in data set [4] (pHL 8.1, 300 mM K-glutamate plus 90 mM KCl, external pH shifted to 6.9) was “more rapid pH equilibration”. Moreover, the “effect on dissipation of pH in the absence of chloride” value in data set [4] (pHL 8.1, 300 mM K-glutamate, external pH shifted to 6.9) is on record as “no effect on the dissipation of pH”. Further, the “rate of pH gradient dissipation, alkaline lumen” value in data set [4] (pHL 8.1, external pH shifted to 6.9, tamoxifen 0.5-8 μM, NH4Cl 5 mM, FCCP 1 μM, valinomycin 1 μM) is listed as “dissipated more quickly with increasing concentrations; also recorded: faster than saturating concentration of FCCP”. Also, the pKa – broadly, the negative logarithm of the acid dissociation constant – in data set [5] is recorded as 6.9.
